Test results as given in the NIST ThermoML archive (doi:10.1016/j.jct.2014.06.021).
± gives the expanded uncertainty stated by the source.

Tests used:
[1] = Molar enthalpy of transition or fusion; conditions: Crystal; DSC
[2] = Crystal; DTA

- Molar enthalpy of transition or fusion [1]: 60 ± 1.5 kJ/mol
- Normal melting temperature [2]: 184.67 ± 0.53 °C
Structure (SMILES): O=P(Oc1ccccc1)(Oc1ccccc1)N1CCN(P(=O)(Oc2ccccc2)Oc2ccccc2)CC1 [tetraphenyl piperazine-1,4-diylbis(phosphonate)]
